{
  "source": "patent US10668056B2",
  "about": "“Pharmaceutical composition comprising indole derivatives, process for preparation and use thereof” (VIVOLUX AB, priority 2015, dated 2020)",
  "key": {"RKO (Colon carcinoma)": {"system": "RKO (Colon carcinoma)", "test": "FMCA cytotoxicity, RKO", "format": "cell-based, human", "details": "72 h", "experimental": "(§1) The inventors also set out to characterize activity of the compounds A, B and C in cell lines representing cancer of different origin. The specific assays used and the conclusions from the mechanistic evaluation have previously been described in detail (Zhang et al. 2014). Compounds A, B and C (See FIG. 4) were evaluated for cytotoxicity expressed as survival index (SI) in six human tumor cell lines using the cell based fluorometric micro culture cytotoxicity assay (FMCA) as previously described in detail (Lindhagen et al, 2008). The method is based on measurement of fluorescent fluorescein, generated from hydrolysis of FDA by viable cells with intact plasma membrane. The fluorescence is proportional to the number of intact viable cells.\n(§2) The cell lines were cultivated in the respective cell medium recommended by the provider. The medium was supplemented with 10% heat-inactivated fetal bovine serum, 2 mmol/L L-glutamine, 100 μg/mL streptomycin and 100 U/mL penicillin (all from Sigma-Aldrich). The cell line was cultured at 37° C. in a humidified atmosphere containing 5% CO2.\n(§3) FMCA analysis in brief, 2500 cells per well were seeded into 384-well microplates and incubated over night before treatment with compounds. Compounds were added using acoustic liquid transfer (Echo 550, LabCyte). The plates were incubated at 37° C. for 72 h, and then washed and FDA was added to the wells followed by 50 min of incubation at 37° C. The fluorescence, which is proportional to the number of living cells in each well, was measured at 485/520 nm in a Fluoroskan instrument (Labsystems, GMI, Ramsey, Minn.). Cell survival is presented as Survival Index (SI), defined as the fluorescence value in the compound-treated wells analysed as percentage of the value in the control wells, with blank values subtracted. Quality criteria included a signal/blank ratio >10 and a coefficient of variation (CV) in control and blank wells <30%. Graph Pad Prism (San Diego, Calif., USA). All experiments were performed twice, and each concentration was evaluated in quadruplicates in each experiment. […]"}, "[1]": {"system": "primary human tumor cell cultures, PMP (Pseudomyxoma Peritonei)", "details": "50 patients analyzed, 72 h", "experimental": "(§4) Cells were seeded in the drug-prepared 384-well plates using the pipetting robot Precision 2000 (Bio-Tek Instruments Inc., Winooski, Vt.)."}, "[2]": {"system": "primary human tumor cell cultures, Renal", "details": "13 patients analyzed, 72 h", "experimental": "as §4"}, "[3]": {"system": "various cell lines (CCRF-CEM, RPMI-8226, A2780, FaDu, HT29, MCF7, HL-60) and primary human tumor cell cultures", "details": "FIG. 3", "experimental": "as §4"}, "[4]": {"system": "primary human tumor cell cultures, Pancreas", "details": "1 patient analyzed, 72 h", "experimental": "as §4"}, "[5]": {"system": "primary human tumor cell cultures, Appendix", "details": "4 patients analyzed, 72 h", "experimental": "as §4"}, "[6]": {"system": "primary human tumor cell cultures, Colorectal cancer", "details": "25 patients analyzed, 72 h", "experimental": "as §4"}, "[7]": {"system": "primary human tumor cell cultures, Gastric", "details": "9 patients analyzed, 72 h", "experimental": "as §4"}, "[8]": {"system": "primary human tumor cell cultures, Small bowel", "details": "1 patient analyzed, 72 h", "experimental": "as §4"}, "[9]": {"system": "primary human tumor cell cultures, Mesothelioma", "details": "7 patients analyzed, 72 h", "experimental": "as §4"}, "[10]": {"system": "primary human tumor cell cultures, Ovarian", "details": "30 patients analyzed, 72 h", "experimental": "as §4"}, "[11]": {"system": "six human tumor cell lines", "test": "FMCA cytotoxicity, six human tumor cell lines (overall)", "format": "cell-based", "details": "Table 6 and FIG. 4", "experimental": "as §1, §2, §3"}, "[12]": {"system": "HepG2 (Hepatocellular Carcinoma)", "test": "FMCA cytotoxicity, HepG2", "format": "cell-based, human", "details": "72 h", "experimental": "as §1, §2, §3"}, "[13]": {"system": "HeLa (Cervix Adenocarcinoma)", "test": "FMCA cytotoxicity, HeLa", "format": "cell-based, human", "details": "72 h", "experimental": "as §1, §2, §3"}, "[14]": {"system": "THP-1 (Acute Monocytic Leukemia)", "test": "FMCA cytotoxicity, THP-1", "format": "cell-based, human", "details": "72 h", "experimental": "as §1, §2, §3"}, "[15]": {"system": "CCRF-CEM (Acute lymphoblastic leukemia)", "test": "FMCA cytotoxicity, CCRF-CEM", "format": "cell-based, human", "details": "72 h", "experimental": "as §1, §2, §3"}, "HCT116 (Colon carcinoma)": {"system": "HCT116 (Colon carcinoma)", "test": "FMCA cytotoxicity, HCT116", "format": "cell-based, human", "details": "72 h", "experimental": "as §1, §2, §3"}, "[16]": {"details": "same sample re-analysed after 2 days"}},
  "note": "pIC50: −log10 of the molar value. Read-outs that look alike come from different tables or passages of the source.",
  "data": [
    {"molecule": "C/C(=N\\Nc1nnc2c(n1)[nH]c1c(C)cccc12)c1ccccn1", "note": "[Compound A, 2-[(1E,Z)-1-(2-{6-methyl-5H-[1,2,4]triazino[5,6-b]indole-3-yl}hydrazine-1-ylidene)ethyl]-pyridine]", "values": [
      {"measurement": "Z-isomer content", "setting": "[16]", "result": "~2", "unit": "%"},
      {"measurement": "hydrolysis detected", "setting": "[16]", "result": "~1", "unit": "%"},
      {"measurement": "Z-isomer content", "setting": "sample preparation in 0.1% TFA/H2O, first analysis", "result": "~7", "unit": "%"},
      {"measurement": "pIC50", "setting": "RKO (Colon carcinoma)", "result": "> 6.60"},
      {"measurement": "pIC50", "setting": "[1]", "result": 5.03},
      {"measurement": "pIC50", "setting": "[2]", "result": 3.79},
      {"measurement": "anti-cancer activity", "setting": "[3]", "result": "broad anti-cancer activity"},
      {"measurement": "pIC50", "setting": "[4]", "result": 5.22},
      {"measurement": "pIC50", "setting": "[5]", "result": 4.68},
      {"measurement": "pIC50", "setting": "[6]", "result": 4.96},
      {"measurement": "pIC50", "setting": "[7]", "result": 5.16},
      {"measurement": "pIC50", "setting": "[8]", "result": 5.27},
      {"measurement": "pIC50", "setting": "[9]", "result": 4.92},
      {"measurement": "pIC50", "setting": "[10]", "result": 5.24},
      {"measurement": "activity on cancer cell lines", "setting": "[11]", "result": "strong activity"},
      {"measurement": "pIC50", "setting": "[12]", "result": "> 6.60"},
      {"measurement": "pIC50", "setting": "[13]", "result": "~4.70"},
      {"measurement": "pIC50", "setting": "[14]", "result": "> 6.60"},
      {"measurement": "pIC50", "setting": "[15]", "result": "> 6.60"},
      {"measurement": "pIC50", "setting": "HCT116 (Colon carcinoma)", "result": "~6.00"}
    ]}
  ]
}
